# Tests used:
# Test in all cases: Heparin affinity study with isothermal titration calorimetry (ITC), sucrose octasulfate titration
# Type in all cases: binding
# Conditions in all cases: 25 °C
# [1] = target: human FGF-1 wild-type, no histag (no histag FGF wild-type), SEQ ID NO: 1 (Homo sapiens, UniProt P05230)
# [2] = target: T1, human FGF-1 wild-type, 140 amino acid form, N-terminal six His tag (hisFGF wild-type), SEQ ID NO: 1 (Homo sapiens, UniProt P05230)
# T1 construct: six His tag (N); made in house; host or cells: pET21a(+) vector; E. coli BL21(DE3) is stated for the mutants, inferred for the wild type
# [3] = target: T2, human FGF-1 variant S116R (Ser116Arg), N-terminal six His tag (hisFGF S116R), SEQ ID NO: 2 (Homo sapiens, UniProt P05230, S131R)
# T2 construct: six His tag (N); made in house; host or cells: E. coli BL21(DE3), pET21a (+)
# From the text: (§1) A codon-optimized synthetic gene encoding 140 amino acids form of human FGF-1 (SEQ ID NO: 1) with an N-terminal six His tag was cloned into the pET21a (+) expression vector. The His tag has shown no influence upon stability, heparin affinity and mitogenic activity. Residue Ser116 inside of the heparin binding site of FGF-1 was mutated to Arginine (SEQ ID NO: 2) and Lysine (SEQ ID NO: 3) individually to increase potential ionic interactions with the sulfonate groups in HSGAG. This was achieved using a QUICKCHANGE site-directed mutagenesis protocol.
# (§2) Each mutation was confirmed by DNA sequencing. The pET21a (+)/BL21(DE3) E. coli host expression system was used to express the FGF-1 heparin affinity mutants. The expressed polypeptide was purified via sequential nickel-nitrilotriacetic acid (Ni-NTA) column (Qiagen) and heparin Sepharose resin (GE Life Sciences, Pittsburgh Pa.). Previous studies of wild-type FGF-1 have shown that the above purification procedure results in protein >99% pure and appropriate for all biophysical studies.
# (§3) Purified modified FGF-1 samples of SEQ ID NOs: 2 and 3 were dialyzed into 20 mM N-(2-acetamido) iminodiacetic acid (ADA), 100 mM NaCl, pH 7.4 for an ITC study. An iTC200 microcalorimeter (MicroCal) was used for data collection. […] The ITC running parameters were: 31 injections; first injection volume 0.5 μl and the rest of the injections 1 μl; temperature 25° C.; reference power 5. The titration curve after baseline subtraction was fitted with a single ligand-binding site model by manufacturer's software (MicroCal Origin). At least three independent trials were collected for each modified FGF-1 samples.
# [4] = target: T3, human FGF-1 variant S116K (Ser116Lys), N-terminal six His tag (hisFGF S116K), SEQ ID NO: 3 (Homo sapiens, UniProt P05230, S131K)
# T3 construct: six His tag (N); made in house; host or cells: E. coli BL21(DE3), pET21a (+)
# From the text: as §1, §2, §3
# [5] = single ligand-binding site model
# T3 sequence (P05230 16-155 S131K): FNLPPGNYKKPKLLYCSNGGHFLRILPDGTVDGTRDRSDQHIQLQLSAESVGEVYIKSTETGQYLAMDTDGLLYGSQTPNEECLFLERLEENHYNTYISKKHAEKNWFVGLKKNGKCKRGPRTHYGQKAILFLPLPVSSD
# T2 sequence (P05230 16-155 S131R): as the sequence (P05230 16-155 S131K) above, with K116R counted along it
# Sequence of human FGF-1 wild-type, no histag (no histag FGF wild-type), SEQ ID NO: 1 (P05230 16-155 limits assumed): as the sequence (P05230 16-155 S131K) above, with K116S counted along it
# T1 sequence (P05230 16-155): as the sequence (P05230 16-155 S131K) above, with K116S counted along it
structure (smiles),measurement,setting,value
O=S(=O)(O)OC[C@H]1O[C@@](COS(=O)(=O)O)(O[C@H]2O[C@H](COS(=O)(=O)O)[C@@H](OS(=O)(=O)O)[C@H](OS(=O)(=O)O)[C@H]2OS(=O)(=O)O)[C@@H](OS(=O)(=O)O)[C@@H]1OS(=O)(=O)O [sucrose octasulfate],Kd,"[1]; 20 mM ADA, 100 mM NaCl, pH 7.4",3.85 ± 0.09 µM
same,ΔH,[1]; pH 7.4,(−6963) ± 65 cal/mol
same,ΔS,[1]; pH 7.4,1.42 ± 0.18 cal/mol/deg
same,N (site),[1]; [5],0.980 ± 0.035
same,Kd,"[2]; 20 mM ADA, 100 mM NaCl, pH 7.4",3.94 ± 0.19 µM
same,ΔH,[2]; pH 7.4,(−7506) ± 95 cal/mol
same,ΔS,[2]; pH 7.4,(−0.44) ± 0.23 cal/mol/deg
same,N (site),[2]; [5],0.917 ± 0.050
same,Kd,"[3]; 20 mM ADA, 100 mM NaCl, pH 7.4",2.46 ± 0.25 µM
same,ΔH,[3]; pH 7.4,(−7081) ± 217 cal/mol
same,ΔS,[3]; pH 7.4,1.84 ± 0.92 cal/mol/deg
same,N (site),[3]; [5],0.942 ± 0.036
same,Kd,"[4]; 20 mM ADA, 100 mM NaCl, pH 7.4",3.1 ± 0.47 µM
same,ΔH,[4]; pH 7.4,(−3339) ± 57 cal/mol
same,ΔS,[4]; pH 7.4,(−6.42) ± 3.04 cal/mol/deg
same,N (site),[4]; [5],1.012 ± 0.014
